Results: ChEMBL document CHEMBL4627344, “Synthesis, biological evaluation and virtual screening of some acridone derivatives as potential anticancer agents” (2020)

Assays:
Format in all cases: functional
PC-3 [1] = assay: Antiproliferative activity against human PC3 cells assessed as inhibition of cell growth at 10 uM measured after 48 hrs by SRB assay relative to control; settings: PC-3, 48 h, read-out: GI
HCT-116 [2] = assay: Antiproliferative activity against human HCT116 cells assessed as inhibition of cell growth measured after 48 hrs by SRB assay; settings: HCT-116, 48 h
NCI-H322M = assay: Antiproliferative activity against human NCI-H322M cells assessed as inhibition of cell growth measured after 48 hrs by SRB assay
MDA-MB-231 = assay: Antiproliferative activity against human MDA-MB-231 cells assessed as inhibition of cell growth measured after 48 hrs by SRB assay; settings: MDA-MB-231, 48 h
MDA-MB-435 = assay: Antiproliferative activity against human MDA-MB-435 cells assessed as inhibition of cell growth measured after 48 hrs by SRB assay; settings: MDA-MB-435, 48 h
HCC 2998 = assay: Antiproliferative activity against human HCC2998 cells assessed as inhibition of cell growth measured after 48 hrs by SRB assay; settings: HCC 2998, 48 h
HCT-116 [3] = assay: Antiproliferative activity against human HCT116 cells assessed as inhibition of cell growth at 10 uM measured after 48 hrs by SRB assay relative to control; settings: HCT-116, 48 h, read-out: GI
NCI-H522 = assay: Antiproliferative activity against human NCI-H522 cells assessed as inhibition of cell growth at 10 uM measured after 48 hrs by SRB assay relative to control; settings: NCI-H522, 48 h, read-out: GI
M14 = assay: Antiproliferative activity against human M14 cells assessed as inhibition of cell growth measured after 48 hrs by SRB assay; settings: M14, 48 h
KM12 = assay: Antiproliferative activity against human KM12 cells assessed as inhibition of cell growth measured after 48 hrs by SRB assay; settings: KM12, 48 h
A498 = assay: Antiproliferative activity against human A498 cells assessed as inhibition of cell growth at 10 uM measured after 48 hrs by SRB assay relative to control; settings: A498, 48 h, read-out: GI
CAKI-1 [4] = assay: Antiproliferative activity against human CAKI-1 cells assessed as inhibition of cell growth measured after 48 hrs by SRB assay; settings: CAKI-1, 48 h
CAKI-1 [5] = assay: Antiproliferative activity against human CAKI-1 cells assessed as inhibition of cell growth at 10 uM measured after 48 hrs by SRB assay relative to control; settings: CAKI-1, 48 h, read-out: GI
SK-OV-3 = assay: Antiproliferative activity against human SKOV3 cells assessed as inhibition of cell growth measured after 48 hrs by SRB assay; settings: SK-OV-3, 48 h
OVCAR-3 = assay: Antiproliferative activity against human OVCAR3 cells assessed as inhibition of cell growth at 10 uM measured after 48 hrs by SRB assay relative to control; settings: OVCAR-3, 48 h, read-out: GI
HCT-15 = assay: Antiproliferative activity against human HCT15 cells assessed as inhibition of cell growth at 10 uM measured after 48 hrs by SRB assay relative to control; settings: HCT-15, 48 h, read-out: GI
U-251 = assay: Antiproliferative activity against human U251 cells assessed as inhibition of cell growth measured after 48 hrs by SRB assay; settings: U-251, 48 h
BT-549 = assay: Antiproliferative activity against human BT549 cells assessed as inhibition of cell growth measured after 48 hrs by SRB assay; settings: BT-549, 48 h
NCI/ADR-RES = assay: Antiproliferative activity against human NCI-ADR-RES cells assessed as inhibition of cell growth at 10 uM measured after 48 hrs by SRB assay relative to control; settings: read-out: GI
UACC-62 = assay: Antiproliferative activity against human UACC62 cells assessed as inhibition of cell growth at 10 uM measured after 48 hrs by SRB assay relative to control; settings: UACC-62, 48 h, read-out: GI
HT-29 = assay: Antiproliferative activity against human HT-29 cells assessed as inhibition of cell growth at 10 uM measured after 48 hrs by SRB assay relative to control; settings: HT-29, 48 h, read-out: GI
EKVX = assay: Antiproliferative activity against human EKVX cells assessed as inhibition of cell growth measured after 48 hrs by SRB assay
ACHN = assay: Antiproliferative activity against human ACHN cells assessed as inhibition of cell growth at 10 uM measured after 48 hrs by SRB assay relative to control; settings: read-out: GI
LOX IMVI = assay: Antiproliferative activity against human LOXIMVI cells assessed as inhibition of cell growth measured after 48 hrs by SRB assay
PC-3 [6] = assay: Antiproliferative activity against human PC3 cells assessed as inhibition of cell growth measured after 48 hrs by SRB assay; settings: PC-3, 48 h
CCRF-CEM = assay: Antiproliferative activity against human CCRF-CEM cells assessed as inhibition of cell growth at 10 uM measured after 48 hrs by SRB assay relative to control; settings: read-out: GI
MOLT-4 = assay: Antiproliferative activity against human MOLT4 cells assessed as inhibition of cell growth measured after 48 hrs by SRB assay; settings: MOLT-4, 48 h
K562 = assay: Antiproliferative activity against human K562 cells assessed as inhibition of cell growth measured after 48 hrs by SRB assay; settings: K562, 48 h
SW-620 [7] = assay: Antiproliferative activity against human SW620 cells assessed as inhibition of cell growth measured after 48 hrs by SRB assay; settings: SW-620, 48 h
HL-60(TB) [8] = assay: Antiproliferative activity against human HL-60(TB) cells assessed as inhibition of cell growth at 10 uM measured after 48 hrs by SRB assay relative to control; settings: HL-60, 48 h, read-out: GI
A549 = assay: Antiproliferative activity against human A549 cells assessed as inhibition of cell growth measured after 48 hrs by SRB assay; settings: A549, 48 h
SW-620 [9] = assay: Antiproliferative activity against human SW620 cells assessed as inhibition of cell growth at 10 uM measured after 48 hrs by SRB assay relative to control; settings: SW-620, 48 h, read-out: GI
HOP-62 = assay: Antiproliferative activity against human HOP62 cells assessed as inhibition of cell growth measured after 48 hrs by SRB assay; settings: HOP-62, 48 h
SNB-75 = assay: Antiproliferative activity against human SNB75 cells assessed as inhibition of cell growth at 10 uM measured after 48 hrs by SRB assay relative to control; settings: SNB-75, 48 h, read-out: GI
SF-295 = assay: Antiproliferative activity against human SF295 cells assessed as inhibition of cell growth at 10 uM measured after 48 hrs by SRB assay relative to control; settings: SF-295, 48 h, read-out: GI
HL-60(TB) [10] = assay: Antiproliferative activity against human HL-60(TB) cells assessed as inhibition of cell growth measured after 48 hrs by SRB assay; settings: HL-60, 48 h

Compound: O=C1CC(c2ccccc2)Cc2nc3ccc(Cl)cc3cc21 (stereo unspecified)
- inhibition of growth at 10 µM (PC-3 [1]): 72.3%
- GI50 (HCT-116 [2]): 46.8 nM
- GI50 (NCI-H322M): 720 nM
- GI50 (MDA-MB-231): 617 nM
- GI50 (MDA-MB-435): 26.6 nM
- GI50 (HCC 2998): 2890 nM
- inhibition of growth at 10 µM (HCT-116 [3]): 94.5%
- inhibition of growth at 10 µM (NCI-H522): 97%
- GI50 (M14): 38 nM
- GI50 (KM12): 349 nM
- inhibition of growth at 10 µM (A498): 117%
- GI50 (CAKI-1 [4]): 151 nM
- inhibition of growth at 10 µM (CAKI-1 [5]): 70.8%
- GI50 (SK-OV-3): 845 nM
- inhibition of growth at 10 µM (OVCAR-3): 129%
- inhibition of growth at 10 µM (HCT-15): 86.1%
- GI50 (U-251): 729 nM
- GI50 (BT-549): 500 nM
- inhibition of growth at 10 µM (NCI/ADR-RES): 92%
- inhibition of growth at 10 µM (UACC-62): 70.7%
- inhibition of growth at 10 µM (HT-29): 95.6%
- GI50 (EKVX): 607 nM
- inhibition of growth at 10 µM (ACHN): 69.2%
- GI50 (LOX IMVI): 558 nM
- GI50 (PC-3 [6]): 280 nM
- inhibition of growth at 10 µM (CCRF-CEM): 89.6%
- GI50 (MOLT-4): 67.5 nM
- GI50 (K562): 119 nM
- GI50 (SW-620 [7]): 370 nM
- inhibition of growth at 10 µM (HL-60(TB) [8]): 121%
- GI50 (A549): 420 nM
- inhibition of growth at 10 µM (SW-620 [9]): 77%
- GI50 (HOP-62): 428 nM
- inhibition of growth at 10 µM (SNB-75): 70.3%
- inhibition of growth at 10 µM (SF-295): 103%
- GI50 (HL-60(TB) [10]): 211 nM
